From patent US7635686B2, “Therapeutically useful triethyleneglycol cholesteryl oligonucleotides” (Bioniche Life Sciences, Inc., priority 2001, dated 2009)
{TEG-Chol} = cholesteryl attached through a triethyleneglycol (TEG) spacer, added as cholesteryl-TEG phosphoramidite

Assays:
[1] = system: MCF-7 cells; experiment: MATRIGEL outgrowth after 1 hr pre-incubation, MCF-7; assay type: cell-based, human; details: MCF-7, 53 μM pre-incubation 1 hr, 3 days on MATRIGEL, FIG. 1
Description: (§1) Various in vitro and in vivo assays may be used to evaluate the influence of the extracellular microenvironment on behavior of normal cells and tumor cells. Such assays may employ MATRIGEL® (Becton Dickinson, Franklin Lakes, N.J.), which is a solubilized basement membrane preparation extracted from the Engelbreth-Holm-Swarm murine sarcoma.
(§2) MCF-7, MDA-MB-231 (MDA-231), Hs578T and Mpanc-96 cells were cultured separately in regular culture medium, trypsinized, and counted. 100×10^3 of MDA-231 cells, 100×10^3 of Hs578T cells, 150×10^3 of MCF-7 cells and 150×10^3 of Mpanc-96 cells were separately pre-incubated for 1 hr at 37° C. in a final concentration of 53 μM of SEQ ID NO:1, 53 μM of SEQ ID NO:5 or RCM, and plated on top of MATRIGEL®-coated plates (MATRIGEL® Basement membrane matrix coated cellware 24-well plate,) for 3 days. Plates were fixed with 10% formalin. Digital photographs of the cells in the 24-well plates were taken using a Nikon Coolpix 990 digital camera (Nikon Corporation, Tokyo, Japan) connected to a Nikon inverted microscope model TMS.

[2] = system: MDA-MB-231 cells; experiment: Release of nuclear mitotic apparatus protein (NuMA) by MDA-MB-231 cells (ELISA); assay type: cell-based, human; details: MDA-MB-231 monolayers, 53 μM, 72 hrs; percentage increase
Description: MDA-MB-231 cells were cultured as monolayers in respective control media, with 53 μM final concentration of SEQ ID NO:1 or 53 μM final concentration of SEQ ID NO:5 for 72 hrs. The release of nuclear mitotic apparatus protein (NuMA) was used as a measure of apoptosis. NuMA was determined using a commercial (ELISA kit (Oncogene, Cambridge, Mass.) following the manufacturer's protocol. Results are shown in Table 10 and are expressed as the percentage increase in NuMA release compared to respective controls based on optical density measurements.

[3] = system: Hs578T cells; experiment: MATRIGEL outgrowth after 1 hr pre-incubation, Hs578T; assay type: cell-based, human; details: 53 μM pre-incubation 1 hr, 3 days on MATRIGEL, FIG. 1 and FIG. 2
Description: as §1, §2
(§3) MDA-MB-231 (MDA-231) and Hs578T were cultured in regular culture medium, trypsinized and counted. 100×10^3 of MDA-MB-231 cells or 100×10^3 of Hs578T cells, were separately pre-incubated for 1 hr at 37° C. in a final concentration of 53 μM of SEQ ID NO:4, 53 μM of SEQ ID NO:8 or RCM and plated on MATRIGEL®-coated plates for 3 days. Plates were fixed with 10% formalin. Digital photographs of the cells in the 24-well plates were taken using a Nikon Coolpix 990 digital camera (Nikon Corporation, Tokyo, Japan) connected to a Nikon inverted microscope model TMS.

[4] = system: MEG-01 cells; experiment: Apoptosis by phosphatidylserine redistribution (FITC-annexin V flow cytometry) in MEG-01 cells; assay type: cell-based, human; details: 48 hours; for Percentage of positive cells for phosphatidylserine (cells in apoptosis) in MEG-01 cells: untreated cells 12%; for Induction of apoptosis in MEG-01 cells (in words): translocation of phosphatidylserine, up to 53.0 μM
Description: Redistribution of plasma membrane phosphatidylserine is a characteristic of cells undergoing apoptosis (Martin et al., J. Exp. Med., 182:1545, 1995). The redistribution of phosphatidylserine in the plasma membrane during apoptosis was measured by flow cytometry using FITC (fluorescein isothiocyanate)-conjugated annexin V (BD Pharmingen, San Diego, Calif.). MEG-01 cells, a human chronic myelogeneous leukemia cell line positive for the Philadelphia chromosome and having a BCR-ABL gene fusion, were incubated at 2.5×10^5 cells/ml for 48 hours with 5.3, 26.5 and 53.0 μM final concentrations of SEQ ID NO:1, SEQ ID NO:2, SEQ ID NO:5, SEQ ID NO:6 and cholesteryl-TEG phosphoramidite molecule. The percentage of cells in apoptosis after exposure to the SEQ ID NOs:1, 2, 5, 6, or cholesteryl-TEG phosphoramidite treatment is reported in Table 2. The percentage of apoptosis in untreated MEG-01 cells was 12%.

[5] = system: Mpanc-96 cells; experiment: MATRIGEL outgrowth after 1 hr pre-incubation, Mpanc-96; assay type: cell-based, human; details: Mpanc-96, 53 μM pre-incubation 1 hr, 3 days on MATRIGEL, FIG. 1
Description: as §1, §2

[6] = system: HIG-82 cells; experiment: Apoptosis by nuclear DNA fragmentation (TUNEL, flow cytometry) in HIG-82 cells; assay type: cell-based, rabbit; details: 53 μM; for Percentage of cells containing DNA fragmentation (cells in apoptosis) in HIG-82 cells: 48 hours, TUNEL; for Induction of apoptosis in HIG-82 cells (in words): fragmented nuclear DNA
Description: Adherent HIG-82 cells were incubated at 1.0×10^5 cells/ml for 48 hours with 53 μM final concentration of SEQ ID NO:1, SEQ ID NO:2, SEQ ID NO:5 or SEQ ID NO:6. Since phosphatidylserine/annexin V detection of apoptosis was not reliable after adherent cell harvesting techniques, such as trypsinization (van Engeland, Cytometry, 31:1, 1998), apoptosis in HIG-82 cells was evaluated using flow cytometry by the detection of fragmented DNA by terminal deoxynucleotidyl transferase enzyme-mediated bromodeoxyuridine triphosphate-biotin nick end-labeling (TUNEL) using a commercial assay (APO-BRDU™ kit; BD Pharmingen). The percentage of cells containing nuclear DNA fragmentation was determined. After 24 hours, untreated HIG-82 cells were essentially negative for nuclear DNA fragmentation.

[7] = system: MDA-MB-231 (MDA-231) cells; experiment: MATRIGEL outgrowth after 1 hr pre-incubation, MDA-231; assay type: cell-based, human; details: MDA-231, 53 μM pre-incubation 1 hr, 3 days on MATRIGEL, FIG. 1 and FIG. 2
Description: as §1, §2, §3

[8] = system: Streptococcal cell wall-induced arthritis; experiment: Streptococcal cell wall-induced arthritis in rats; assay type: in vivo, LEW/N rats; details: 1, 10, 100 mg/kg with SCW, monitored daily for two weeks; versus SCW alone and unconjugated sequences; dose-dependent
Description: Streptococcal cell wall-induced arthritis in LEW/N rats resembles a localized neoplasm consisting of, in part, of a proliferative and invasive population of fibroblast-like synovial cells (Yocum et al., Am. J. Pathol. 132:38, 1988). The arthritis is induced in LEW/N rats by intra-articular injection of streptocococcal cell wall (SCW) from group A Streptococcus pyogenes. The rats are divided into 13 groups of 10 rats. On day 0, group 1 rats receive SCW, group 2 rats receive SCW+1 mg/kg SEQ ID NO:1, group 3 rats receive SCW+10 mg/kg SEQ ID NO:1, group 4 rats receive SCW+100 mg/kg SEQ ID NO:1, group 5 rats receive SCW+1 mg/kg SEQ ID NO:2, group 6 rats receive SCW+10 mg/kg SEQ ID NO:2, group 7 rats receive SCW+100 mg/kg SEQ ID NO:2, group 8 rats receive SCW+1 mg/kg SEQ ID NO:5, group 9 rats receive SCW+10 mg/kg SEQ ID NO:5, group 10 rats receive SCW+100 mg/kg SEQ ID NO:5, group 11 rats receive SCW+1 mg/kg SEQ ID NO:6, group 12 rats receive SCW+10 mg/kg SEQ ID NO:6, group 13 rats receive SCW+[…]. The joint inflammation is monitored daily for two weeks.

[9] = system: MEG-01 cells; experiment: MEG-01 cells inoculated subcutaneously in athymic nude mice; assay type: in vivo; details: 1, 10, 100 mg/kg, after 4 weeks of treatment; versus saline and unconjugated sequences; dose-dependent
Description: MEG-01 cells are inoculated subcutaneously into athymic nude mice as previously described (Takeo et al., Leukemia 7:1286, 1993). The mice are divided into 13 groups of 10 mice. On day 0, group 1 mice receive saline, group 2 mice receive 1 mg/kg SEQ ID NO:1, group 3 mice receive 10 mg/kg SEQ ID NO:1, group 4 mice receive 100 mg/kg SEQ ID NO:1, group 5 mice receive 1 mg/kg SEQ ID NO:2, group 6 mice receive 10 mg/kg SEQ ID NO:2, group 7 mice receive 100 mg/kg SEQ ID NO:2, group 8 mice receive 1 mg/kg SEQ ID NO:5, group 9 mice receive 10 mg/kg SEQ ID NO:5, group 10 mice receive 100 mg/kg SEQ ID NO:5, group 11 mice receive 1 mg/kg SEQ ID NO:6, group 12 mice receive 10 mg/kg SEQ ID NO:6 and group 13 mice receive 100 mg/kg SEQ ID NO:6 After 4 weeks of treatment, the mice are sacrificed and tumor mass is determined.

[10] = system: HIG-82 cells; experiment: HIG-82 synovial cell proliferation (MTT reduction); assay type: cell-based, rabbit; details: 53 μM, 48 hours
Description: Adherent HIG-82 cells, a synovial cell line, were incubated at 10×10^5 cells/ml for 48 hours with 53 μM (final concentration) of SEQ ID NO:2, SEQ ID NO:3, SEQ ID NO:4, SEQ ID NO:6, SEQ ID NO:7, or SEQ ID NO:8. Cellular proliferation was measured using dimethylthiazol-diphenyl-tetrazolium (MTT) reduction (Mosman et al., J. Immunol. Methods 65:55, 1983). MTT was measured at a wavelength of 570 nm using a multiple spectrophotometer reader (ELX800, Bio-TEK, Instruments Inc., Winooski, Vt.). The percentage of inhibition, calculated as […]

[11] = system: MEG-01 cells; experiment: Cell cycle stage in MEG-01 cells (propidium iodide flow cytometry); assay type: cell-based, human; details: 24 h
Description: To determine a cell cycle stage, various assays and procedures known to one skilled in the art may be employed. One such procedure uses a CYCLETEST™ PLUS DNA commercial kit (Becton Dickinson, Franklin Lakes, N.J.). Briefly, nuclei from cells are obtained by dissolving the cell membrane in a nonionic detergent, eliminating the cell cytoskeleton and nuclear proteins with trypsin, digesting the cellular RNA with RNase, and stabilizing the nuclear chromatin with spermine. Propidium iodide is added to the cell nuclei and their fluorescence was analyzed in a flow cytometer equipped with electronic doublet discrimination capability (FACSCalibur, Becton Dickinson, Franklin Lakes, N.J.). Accumulation of cells in G0/G1, early S (SE), mid S (SM), late S (SL) or G2/M phases of the cell cycle may be analyzed using MODFIT LT software (Verity Software House Inc., Topsham, Mass.), or other appropriate software.
Exponentially growing MEG-01 cells (2×10^5 cells/ml) were incubated for 24 h with 0 μM (control), 53 μM of SEQ ID NO:2 or 53 μM of SEQ ID NO:6. The cells were collected, centrifuged, and cell cycle stage was determined.

Substance	Formation of 3-dimensional structures / cell morphology on MATRIGEL [1]	NuMA release compared to controls (%) [2]	Formation of 3-dimensional structures / cell morphology on MATRIGEL [3]	Percentage of positive cells for phosphatidylserine (cells in apoptosis) in MEG-01 cells ([4]; 5.3 μM) [%]	Percentage of positive cells for phosphatidylserine (cells in apoptosis) in MEG-01 cells ([4]; 26.5 μM) [%]	Percentage of positive cells for phosphatidylserine (cells in apoptosis) in MEG-01 cells ([4]; 53.0 μM) [%]	Induction of apoptosis in MEG-01 cells (in words) [4]	Formation of 3-dimensional structures / cell morphology on MATRIGEL [5]	Percentage of cells containing DNA fragmentation (cells in apoptosis) in HIG-82 cells [6] [%]	Induction of apoptosis in HIG-82 cells (in words) [6]	Formation of 3-dimensional structures / cell morphology on MATRIGEL [7]	Joint inflammation [8]	Tumor mass [9]	Inhibition of proliferation of synovial HIG-82 cells (in words) [10]	Inhibition of HIG-82 cell proliferation, inhibition (%) ([10]; MTT)	Induction of cell cycle arrest in MEG-01 cells (in words) ([11]; 53 μM)	% of cells in phase SM ([11]; MEG-01, 53 μM, untreated 10.8) [%]	% of cells in phase SL + G2/M ([11]; MEG-01, 53 μM, untreated 17.8) [%]	% of cells in phase G0/G1 + SE ([11]; MEG-01, 53 μM, untreated 71.4) [%]
5′ OH-GGGTGG-OH 3′ [SEQ ID NO:1]	did not change cell morphology	+5%	did not change cell morphology	12	12	12	inactive	did not change cell morphology	1	inactive	did not change cell morphology								
5′ OH-GGGAGG(TEG-cholesteryl) 3′ (3' {TEG-Chol}, sugars by position and backbone not given here) [SEQ ID NO:6, 5′-OH, 3′-TEG cholesteryl synthetic oligonucleotide]				13	22	39	capacity to induce apoptosis		18	capacity to induce apoptosis		less inflammation	less tumor mass	capacity to inhibit the cellular proliferation	75	capacity to induce cell cycle arrest at the SL+G2/M phase	6.5	41.9	51.6
5′ OH-GGGTGG(TEG-cholesteryl) 3′ [SEQ ID NO:5]	prevented the formation of 3-dimensional structures		prevented the formation of 3-dimensional structures	12	27	42	capacity to induce apoptosis	prevented the formation of 3-dimensional structures	17	capacity to induce apoptosis	prevented the formation of 3-dimensional structures	less inflammation	less tumor mass						
